Experimental data published in ChEMBL document CHEMBL1139599, “Benzothieno[3,2-b]indole derivatives as potent selective estrogen receptor modulators” (Bioorg Med Chem Lett, 2005).

Legend:
[1] = molecular target: T1, Estrogen receptor (Mus musculus) (UniProt O08537+P19785); details: Uterus
Description: Uterine wet weight in ovariectomized mice after 4 weeks of subcutaneous administration at 4 umol/kg (n=5)

Estrogen receptor beta = Estrogen receptor beta (Homo sapiens, UniProt Q92731); assay: Inhibition of [3H]17-beta-estradiol binding to human estrogen receptor beta
Estrogen receptor = molecular target: T2, Estrogen receptor (Homo sapiens, UniProt P03372); assay: Inhibition of [3H]17-beta-estradiol binding to human estrogen receptor alpha
T2 sequence (P03372 whole entry): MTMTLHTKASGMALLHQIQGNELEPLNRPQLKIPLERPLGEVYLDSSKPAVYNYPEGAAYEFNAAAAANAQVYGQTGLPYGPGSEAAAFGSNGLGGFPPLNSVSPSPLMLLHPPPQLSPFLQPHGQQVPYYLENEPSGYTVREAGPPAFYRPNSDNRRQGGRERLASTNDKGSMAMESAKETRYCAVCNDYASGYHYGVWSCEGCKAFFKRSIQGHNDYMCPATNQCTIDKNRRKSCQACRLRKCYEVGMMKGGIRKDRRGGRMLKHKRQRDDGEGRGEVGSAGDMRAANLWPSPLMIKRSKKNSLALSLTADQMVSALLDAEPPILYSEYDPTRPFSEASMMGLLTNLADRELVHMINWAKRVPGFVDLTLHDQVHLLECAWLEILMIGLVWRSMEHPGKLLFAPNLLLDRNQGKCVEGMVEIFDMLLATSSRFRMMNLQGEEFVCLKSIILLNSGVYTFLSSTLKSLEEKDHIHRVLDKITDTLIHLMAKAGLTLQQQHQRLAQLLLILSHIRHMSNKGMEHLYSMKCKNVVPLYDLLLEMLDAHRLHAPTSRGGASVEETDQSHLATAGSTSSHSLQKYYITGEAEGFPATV

[2] = molecular target: T1, Estrogen receptor (Mus musculus)

Sequence of Estrogen receptor beta (Q92731 whole entry): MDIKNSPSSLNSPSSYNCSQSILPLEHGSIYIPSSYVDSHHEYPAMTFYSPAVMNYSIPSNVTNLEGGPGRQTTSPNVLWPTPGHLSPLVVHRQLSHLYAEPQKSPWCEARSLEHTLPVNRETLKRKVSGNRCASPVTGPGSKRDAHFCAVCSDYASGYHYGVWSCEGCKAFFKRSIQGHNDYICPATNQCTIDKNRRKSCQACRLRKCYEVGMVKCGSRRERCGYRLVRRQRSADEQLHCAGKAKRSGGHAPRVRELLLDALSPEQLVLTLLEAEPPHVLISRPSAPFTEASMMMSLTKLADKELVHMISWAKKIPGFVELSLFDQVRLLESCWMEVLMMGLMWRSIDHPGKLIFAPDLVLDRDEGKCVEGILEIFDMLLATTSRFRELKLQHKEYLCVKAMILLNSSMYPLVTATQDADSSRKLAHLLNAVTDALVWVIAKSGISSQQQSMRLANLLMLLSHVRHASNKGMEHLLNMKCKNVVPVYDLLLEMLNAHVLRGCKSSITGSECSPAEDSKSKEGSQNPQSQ
T1 sequence (O08537 whole entry, looked up): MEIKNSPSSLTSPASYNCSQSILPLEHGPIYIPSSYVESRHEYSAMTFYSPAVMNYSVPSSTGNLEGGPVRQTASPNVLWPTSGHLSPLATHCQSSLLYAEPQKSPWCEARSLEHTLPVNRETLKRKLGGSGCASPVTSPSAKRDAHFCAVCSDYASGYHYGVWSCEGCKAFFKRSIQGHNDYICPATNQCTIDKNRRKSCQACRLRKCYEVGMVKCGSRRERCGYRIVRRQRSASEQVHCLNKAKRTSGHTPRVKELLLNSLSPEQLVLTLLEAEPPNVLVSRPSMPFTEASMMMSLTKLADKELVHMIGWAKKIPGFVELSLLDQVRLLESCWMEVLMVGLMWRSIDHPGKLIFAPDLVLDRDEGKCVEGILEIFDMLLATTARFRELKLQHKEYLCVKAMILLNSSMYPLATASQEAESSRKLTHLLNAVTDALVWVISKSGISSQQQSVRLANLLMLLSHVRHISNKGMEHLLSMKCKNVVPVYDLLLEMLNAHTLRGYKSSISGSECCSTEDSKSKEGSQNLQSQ
T1 sequence (P19785 whole entry, looked up): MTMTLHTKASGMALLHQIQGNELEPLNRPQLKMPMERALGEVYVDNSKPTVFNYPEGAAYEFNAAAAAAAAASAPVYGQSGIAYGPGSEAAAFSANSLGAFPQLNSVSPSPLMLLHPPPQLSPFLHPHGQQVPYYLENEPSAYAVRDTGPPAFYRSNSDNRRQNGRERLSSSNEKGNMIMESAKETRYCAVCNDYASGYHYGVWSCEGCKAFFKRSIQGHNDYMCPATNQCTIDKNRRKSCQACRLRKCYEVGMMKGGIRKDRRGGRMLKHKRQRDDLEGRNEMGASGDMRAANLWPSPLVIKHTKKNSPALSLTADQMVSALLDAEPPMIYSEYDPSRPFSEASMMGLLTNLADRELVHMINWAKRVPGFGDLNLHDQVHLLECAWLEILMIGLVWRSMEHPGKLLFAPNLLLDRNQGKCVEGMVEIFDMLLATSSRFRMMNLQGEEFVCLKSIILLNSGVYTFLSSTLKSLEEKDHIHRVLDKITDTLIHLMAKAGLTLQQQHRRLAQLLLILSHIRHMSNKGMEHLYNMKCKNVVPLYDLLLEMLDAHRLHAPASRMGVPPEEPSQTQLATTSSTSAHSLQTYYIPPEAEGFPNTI

Structure (SMILES) | Wet weight [1] | IC50 (Estrogen receptor beta) | IC50 (Estrogen receptor) | BMD [2]
CCN(CC)CCOc1ccc(Cn2c3ccc(O)cc3c3sc4cc(O)ccc4c32)cc1 | 37.7 mg | 16.4 nM | 31.2 nM | 479 mg/cm3
CN(C)CCOc1ccc(Cn2c3ccccc3c3sc4cc(O)ccc4c32)cc1 | 28.2 mg | 45.6 nM | 51.4 nM | 474 mg/cm3
Oc1ccc2c(c1)sc1c3cc(O)ccc3n(Cc3ccc(OCCN4CCCCC4)cc3)c21 | 44.2 mg | 11 nM | 2.84 nM | 548 mg/cm3
Oc1ccc2c(c1)sc1c3cc(O)ccc3n(Cc3ccc(OCCN4CCCCCC4)cc3)c21 | 44.2 mg | 7.26 nM | 3.34 nM | 534 mg/cm3
Oc1ccc2c(c1)sc1c3cc(O)ccc3n(Cc3ccc(OCCN4CCCC4)cc3)c21 | 30.7 mg | 20.2 nM | 6 nM | 469 mg/cm3
Oc1ccc2c(c1)sc1c3ccccc3n(Cc3ccc(OCCN4CCCC4)cc3)c21 | 27.6 mg | 53.9 nM | 27.2 nM | 505 mg/cm3
Oc1ccc2c(c1)sc1c3ccccc3n(Cc3ccc(OCCN4CCCCC4)cc3)c21 | 34 mg | 35 nM | 39 nM | 436 mg/cm3
CCN(CC)CCOc1ccc(Cn2c3ccccc3c3sc4cc(O)ccc4c32)cc1 | 34.9 mg | 25 nM | 57.4 nM | 448 mg/cm3
Oc1ccc2c(c1)sc1c3cc(O)ccc3n(Cc3ccc(OCCN4CCOCC4)cc3)c21 | 26.3 mg | 21.4 nM | 10 nM | 470 mg/cm3
CN(C)CCOc1ccc(Cn2c3ccc(O)cc3c3sc4cc(O)ccc4c32)cc1 | 26.2 mg | 31 nM | 18 nM | 480 mg/cm3
Oc1ccc2c(c1)sc1c3ccccc3n(Cc3ccc(OCCN4CCOCC4)cc3)c21 | 27 mg | 215 nM | 126 nM | 455 mg/cm3
Oc1ccc2c(c1)sc1c3ccccc3n(Cc3ccc(OCCN4CCCCCC4)cc3)c21 | 28.5 mg | 16.6 nM | 18 nM | 444 mg/cm3
